Structures can show the parent of a compound that is named as a salt.
Target: T1, hYAK3 (Homo sapiens, UniProt O43781)
T1 construct: containing amino acid residues 124-526 of human YAK3; GST (N); His6 (C); made in house; host or cells: baculovirus expression system in Sf9 cells
T1 sequence (O43781 124-526): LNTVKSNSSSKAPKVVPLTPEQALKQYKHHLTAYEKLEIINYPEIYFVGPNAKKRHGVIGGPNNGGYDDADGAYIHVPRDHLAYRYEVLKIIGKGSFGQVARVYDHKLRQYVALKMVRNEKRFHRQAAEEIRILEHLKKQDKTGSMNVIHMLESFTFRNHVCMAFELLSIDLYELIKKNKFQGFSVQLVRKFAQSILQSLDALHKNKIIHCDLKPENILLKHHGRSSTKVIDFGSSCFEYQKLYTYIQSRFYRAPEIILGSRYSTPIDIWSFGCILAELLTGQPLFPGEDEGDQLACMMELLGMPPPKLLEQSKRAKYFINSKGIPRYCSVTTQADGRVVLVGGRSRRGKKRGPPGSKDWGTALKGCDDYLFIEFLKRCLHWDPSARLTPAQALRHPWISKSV
Experiment: YAK3 Scintillation Proximity Assay using Ser164 of myelin basic protein as the phosphoacceptor (kinase assay of purified hYAK3)
Assay type: biochemical
Conditions: purified GST-hYak3-His6 (residues 124-526), 4 nM; 0.001 mM ATP; 4 μM Ser164 peptide; 2 hours at room temperature; compounds 50 μM to 0.5 nM
Description: YAK3 Scintillation Proximity Assays Using Ser164 of Myelin Basic Protein as the Phosphoacceptor
Source of Ser164 Substrate Peptide:
The biotinylated Ser164, S164A peptide(Biotinyl -LGGRDSRAGS*PMARR—OH), sequence derived from the C-terminus of bovine myelin basic protein (MBP) with Ser162 substituted as Ala162, was purchased from California Peptide Research Inc. (Napa, Calif.), and its purity was determined by HPLC. Phosphorylation occurs at position 164 (marked S* above). The calculated molecular mass of the peptide was 2166 dalton. Solid sample was dissolved at 10 mM in DMSO, aliquoted, and stored at −20° C. until use.
hYAK3: Glutathione-S-Transferase (GST)-hYak3-His6 containing amino acid residues 124-526 of human YAK3 was purified from baculovirus expression system in Sf9 cells using Glutathione Sepharose 4B column chromatography followed by Ni-NTA-Agarose column chromatography. Purity greater than 65% typically was achieved. Samples, in 50 mM Tris, 150 mM NaCl, 10% glycerol, 0.1% Triton, 250 mM imidazole, 10 mM β-mercapto ethanol, pH 8.0.—
were stored at −80° C. until use.
Kinase Assay of Purified hYAK3:
Assays were performed in 96 well (Costar, Catalog No. 3789) or 384 well plates (Costar, Catalog No. 3705). Reaction (in 20, 25, or 40 μl volume) mix contained in final concentrations 25 mM Hepes buffer, pH 7.4; 10 mM MgCl2; 10 mM β-mercapto ethanol; 0.0025% Tween-20; 0.001 mM ATP, 0.1 ? Ci of [ ? -^33P]ATP; purified hYAK3 (7-14 ng/assay; 4 nM final); and 4 μM Ser164 peptide. Compounds, titrated in DMSO, were evaluated at concentrations ranging from 50 μM to 0.5 nM. […] Reactions were incubated for 2 hours at room temperature and were stopped by a 75 ul addition of […] Streptavidin Scintillation Proximity beads (Amersham Pharmacia Biotech, Catalog No. RPNQ 0007) in PBS, pH 7.4, 10 mM EDTA, 0.1% Triton X-100, 1 mM ATP. Under the assay conditions defined above, the Km(apparent) for ATP was determined to be 7.2+/−2.4 μM. Assay results are depicted in Table 1.

COc1ccc2cc(C(=O)O)c(NCCCNC(=O)OC(C)(C)C)nc2c1 [Example 1, 2-(3-tert-butoxycarbonylamino-propylamino)-7-methoxy-quinoline-3-carboxylic acid] showed an IC50 of 1000 to 10000 nM.

With COc1ccc2cc(C(=O)O)c(NCCCN)nc2c1 [Example 2, 2-(3-amino-propylamino)-7-methoxy-quinoline-3-carboxylic acid] the IC50 was < 1000 nM.

In the case of COc1ccc2cc(C(=O)O)c(NCc3ccccc3)nc2c1 [Example 3, 2-benzylamino-7-methoxy-quinoline-3-carboxylic acid], the IC50 is reported as < 1000 nM.

For COc1ccc2cc(C(=O)O)c(NCCc3ccccc3)nc2c1 [Example 4, 7-methoxy-2-phenethylamino-quinoline-3-carboxylic acid], the IC50 was < 1000 nM.

In the case of COc1ccc2cc(C(=O)O)c(NCCc3ccncc3)nc2c1 [Example 5, 7-methoxy-2-(2-pyridin-4-yl-ethylamino)-quinoline-3-carboxylic acid], the IC50 is reported as < 1000 nM.

In the case of COc1ccc2cc(C(=O)O)c(NCCN(C)C)nc2c1 [Example 6, 2-(2-dimethylamino-ethylamino)-7-methoxy-quinoline-3-carboxylic acid hydrochloride], the IC50 is reported as < 1000 nM.

For COc1ccc2cc(C(=O)O)c(NC3Cc4ccccc4C3)nc2c1 [Example 7, 2-(indan-2-ylamino)-7-methoxy-quinoline-3-carboxylic acid], the IC50 was < 1000 nM.

COc1ccc2cc(C(=O)O)c(NCCCN3CCOCC3)nc2c1 [Example 8, 7-methoxy-2-(3-morpholin-4-yl-propylamino)-quinoline-3-carboxylic acid] gave an IC50 of 1000 to 10000 nM.

For O=C(O)c1cc2ccc(O)cc2nc1Nc1ccccc1Cl [Example 12, 2-(2-Chloro-phenylamino)-7-hydroxy-quinoline-3-carboxylic acid], the IC50 was < 1000 nM.

Source: patent US7482455B2, “Chemical compounds” (SmithKline Beecham Corporation, priority 2002, dated 2009)
